{"source": "patent US8426447B2", "about": "“Spiro-tricyclic ring compounds as beta-secretase modulators and methods of use” (Amgen Inc., priority 2008, dated 2013)", "key": {"BACE1 [1]": {"target": "T1, BACE1 (Homo sapiens, UniProt P56817)", "T1 sequence (P56817 46-501, species assumed)": "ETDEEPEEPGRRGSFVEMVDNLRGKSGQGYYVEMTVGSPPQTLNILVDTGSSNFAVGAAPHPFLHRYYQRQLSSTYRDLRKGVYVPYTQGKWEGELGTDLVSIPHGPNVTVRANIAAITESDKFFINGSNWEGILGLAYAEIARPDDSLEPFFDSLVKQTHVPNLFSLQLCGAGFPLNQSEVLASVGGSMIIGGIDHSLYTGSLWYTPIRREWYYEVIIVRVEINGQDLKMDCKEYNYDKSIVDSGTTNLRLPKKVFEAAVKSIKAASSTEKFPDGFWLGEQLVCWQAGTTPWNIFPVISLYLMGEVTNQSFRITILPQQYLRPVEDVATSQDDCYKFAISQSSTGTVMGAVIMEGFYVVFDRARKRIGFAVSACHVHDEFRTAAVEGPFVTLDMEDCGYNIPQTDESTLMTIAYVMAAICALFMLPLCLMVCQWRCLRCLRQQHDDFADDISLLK", "assay": "In Vitro Enzymatic BACE FRET (Fluorescence Resonance Energy Transfer) Assay", "assay_type": "biochemical", "conditions": "read-out: BACE1 FRET assay", "procedure,_shortened": "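Buffer 0.05 M acetate pH 4.2 with 10% DMSO final and 100 uM genapol; reaction started with 50 nM FRET peptide substrate (fluorophore/quencher flanking BACE cleavage site), incubated one hour. Stopped with Tris buffer raising pH to neutrality, then fluorescence read.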"}, "BACE1 [2]": {"target": "T1, BACE1", "assay": "In Vitro BACE Cell-based Assay (HEK cell assay): Aβ40 in conditioned medium of cells stably expressing Amyloid Precursor Protein, sandwich ELISA", "conditions": "read-out: HEK cell assay", "procedure,_shortened": "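First, APP-stable cells grow 24 h at 37° C., 5% CO2. Next, test compounds are added for 24 h (10 doses, 0.1% DMSO). Finally, medium Aβ40 is determined by pAb40/6E10 sandwich ELISA with Europium TRF, and IC50 is calculated.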"}, "[3]": {"conditions": "in vitro BACE FRET enzyme assay, IC50 class symbols"}, "[4]": {"conditions": "HEK cell-based assay, Aβ40 in conditioned medium, IC50 class symbols"}}}
{"compound": "NC1=N[C@]2(CO1)c1cc(OC[C@@H](O)C(F)(F)F)ccc1Oc1ccc(-c3cccnc3)cc12", "note": "[compound 925]", "values": [{"measurement": "IC50", "setting": "BACE1 [1]", "value": "< 0.1", "unit": "µM"}, {"measurement": "IC50", "setting": "BACE1 [2]", "value": "0.1 to 1", "unit": "µM"}]}
{"compound": "NC1=N[C@@]2(CO1)c1cc(-c3cccnc3)ccc1Oc1cnc(-c3cccnc3)cc12", "note": "[compound 902]", "values": [{"measurement": "IC50", "setting": "BACE1 [1]; Table IV, class symbols", "value": "< 0.1", "unit": "µM"}, {"measurement": "IC50", "setting": "BACE1 [2]; Table IV, class symbols", "value": "< 0.1", "unit": "µM"}]}
{"compound": "CC(C)OC1CN(c2ccc3c(c2)[C@]2(COC(N)=N2)c2cc(-c4cccnc4)ccc2O3)C1", "note": "[compound 384]", "values": [{"measurement": "IC50", "setting": "BACE1 [1]; [3]", "value": "< 0.1", "unit": "µM"}, {"measurement": "IC50", "setting": "BACE1 [2]; [4]", "value": "< 0.1", "unit": "µM"}]}
{"compound": "NC1=N[C@@]2(CO1)c1cc(-c3cccnc3)ccc1Oc1ncccc12", "note": "[compound 594]", "values": [{"measurement": "IC50", "setting": "BACE1 [1]; Table IV, class symbols", "value": "> 5", "unit": "µM"}, {"measurement": "IC50", "setting": "BACE1 [2]; Table IV, class symbols", "value": "> 5", "unit": "µM"}]}
{"compound": "CC(C)(C)COc1cnc2c(c1)[C@]1(COC(N)=N1)c1cc(-c3cncc(F)c3)ccc1O2", "note": "[compound 389]", "values": [{"measurement": "IC50", "setting": "BACE1 [1]; [3]", "value": "< 0.1", "unit": "µM"}, {"measurement": "IC50", "setting": "BACE1 [2]; [4]", "value": "< 0.1", "unit": "µM"}]}
{"compound": "COc1cccc(-c2ccc3c(c2)[C@]2(COC(N)=N2)c2cc(-c4cncnc4)ccc2O3)c1", "note": "[compound 893]", "values": [{"measurement": "IC50", "setting": "BACE1 [1]; Table IV, class symbols", "value": "< 0.1", "unit": "µM"}, {"measurement": "IC50", "setting": "BACE1 [2]; Table IV, class symbols", "value": "0.1 to 1", "unit": "µM"}]}
{"compound": "COc1ccc2c(c1)[C@]1(COC(N)=N1)c1cc(NC(=O)c3ccc(Cl)nc3)ccc1O2", "note": "[compound 617]", "values": [{"measurement": "IC50", "setting": "BACE1 [1]; Table IV, class symbols", "value": "1 to 5", "unit": "µM"}, {"measurement": "IC50", "setting": "BACE1 [2]; Table IV, class symbols", "value": "1 to 5", "unit": "µM"}]}
{"compound": "Cn1cc(-c2cc(F)c3c(c2)[C@]2(COC(N)=N2)c2cc(-c4cccnc4)ccc2O3)cn1", "note": "[compound 509, (4S)-4′-fluoro-2′-(1-methyl-1H-pyrazol-4-yl)-7′-(3-pyridinyl)spiro[1,3-oxazole-4,9′-xanthen]-2-amine]", "values": [{"measurement": "IC50", "setting": "BACE1 [1]", "value": "< 0.1", "unit": "µM"}, {"measurement": "IC50", "setting": "BACE1 [2]; HEK cells", "value": "< 0.1", "unit": "µM"}]}
{"compound": "NC1=N[C@]2(CO1)c1cc(C(=O)CCCO)ccc1Oc1ccc(-c3cccnc3)cc12", "note": "[compound 650]", "values": [{"measurement": "IC50", "setting": "BACE1 [1]; Table IV, class symbols", "value": "< 0.1", "unit": "µM"}, {"measurement": "IC50", "setting": "BACE1 [2]; Table IV, class symbols", "value": "0.1 to 1", "unit": "µM"}]}
{"compound": "COc1ccc2c(c1)C1(COC(N)=N1)c1cc(-c3cccnc3Cl)ccc1O2", "note": "(stereo not shown) [Example 21, 2′-(2-chloro-3-pyridinyl)-7′-methoxyspiro[1,3-oxazole-4,9′-xanthen]-2-amine trifluoroacetic acid]", "values": [{"measurement": "IC50", "setting": "BACE1 [1]; Table 1", "value": "1 to 5", "unit": "µM"}, {"measurement": "IC50", "setting": "BACE1 [2]; Table 1, Aβ40, 24 h incubation", "value": "> 5", "unit": "µM"}]}
{"compound": "CC(C)(C)/C=C/c1cnc2c(c1)[C@]1(COC(N)=N1)c1cc(-c3cccnc3F)ccc1O2", "note": "[compound 380]", "values": [{"measurement": "IC50", "setting": "BACE1 [1]; [3]", "value": "< 0.1", "unit": "µM"}, {"measurement": "IC50", "setting": "BACE1 [2]; [4]", "value": "< 0.1", "unit": "µM"}]}
{"compound": "NC1=N[C@]2(CO1)c1cc(CC(=O)O)ccc1Oc1ccc(-c3cncnc3)cc12", "note": "[compound 751]", "values": [{"measurement": "IC50", "setting": "BACE1 [1]", "value": "0.1 to 1", "unit": "µM"}, {"measurement": "IC50", "setting": "BACE1 [2]", "value": "> 5", "unit": "µM"}]}
{"compound": "NC1=N[C@]2(CO1)c1cc(-c3ccc(C(F)(F)F)cc3)ccc1Oc1ccc(-c3cncnc3)cc12", "note": "[compound 811]", "values": [{"measurement": "IC50", "setting": "BACE1 [1]; Table IV, class symbols", "value": "< 0.1", "unit": "µM"}, {"measurement": "IC50", "setting": "BACE1 [2]; Table IV, class symbols", "value": "0.1 to 1", "unit": "µM"}]}
{"compound": "CC(C)C(C)(O)COc1ccc2c(c1)[C@]1(COC(N)=N1)c1cc(-c3cccnc3)ccc1O2", "note": "(stereo partly shown) [compound 867]", "values": [{"measurement": "IC50", "setting": "BACE1 [1]; Table IV, class symbols", "value": "< 0.1", "unit": "µM"}, {"measurement": "IC50", "setting": "BACE1 [2]; Table IV, class symbols", "value": "< 0.1", "unit": "µM"}]}
{"compound": "CC(C)(C)COc1ccc2c(c1)[C@]1(COC(N)=N1)c1cc(-c3ccc4[nH]ccc4c3)ccc1O2", "note": "[Example 73, (4S)-2′-(2,2-dimethylpropoxy)-7′-(1H-indol-5-yl)spiro[1,3-oxazole-4,9′-xanthen]-2-amine]", "values": [{"measurement": "IC50", "setting": "BACE1 [1]; Table II", "value": "0.1 to 1", "unit": "µM"}, {"measurement": "IC50", "setting": "BACE1 [2]; Table II, Aβ40, 24 h incubation", "value": "1 to 5", "unit": "µM"}]}
{"compound": "CC(C)(O)C#Cc1ccc2c(c1)[C@]1(COC(N)=N1)c1cc(-c3cccnc3)ccc1O2", "note": "[151a]", "values": [{"measurement": "IC50", "setting": "BACE1 [1]; Table III, IC50's in uM ranges", "value": "< 0.1", "unit": "µM"}, {"measurement": "IC50", "setting": "BACE1 [2]; Table III, IC50's in uM ranges", "value": "< 0.1", "unit": "µM"}]}
{"compound": "CC1(COc2cnc3c(c2)[C@]2(COC(N)=N2)c2cc(-c4ccccc4F)ccc2O3)COC1", "note": "[compound 458]", "values": [{"measurement": "IC50", "setting": "BACE1 [1]", "value": "< 0.1", "unit": "µM"}, {"measurement": "IC50", "setting": "BACE1 [2]; HEK cells", "value": "< 0.1", "unit": "µM"}]}
{"compound": "CC(C)(C)COc1ccc2c(c1)[C@]1(COC(N)=N1)c1cc(-c3ccsc3)ccc1O2", "note": "[compound 833]", "values": [{"measurement": "IC50", "setting": "BACE1 [1]; Table IV, class symbols", "value": "< 0.1", "unit": "µM"}, {"measurement": "IC50", "setting": "BACE1 [2]; Table IV, class symbols", "value": "1 to 5", "unit": "µM"}]}
{"compound": "NC1=N[C@@]2(CO1)c1cc(-c3cncnc3)ccc1Oc1ccc(C(F)(F)F)cc12", "note": "[compound 597]", "values": [{"measurement": "IC50", "setting": "BACE1 [1]; Table IV, class symbols", "value": "0.1 to 1", "unit": "µM"}, {"measurement": "IC50", "setting": "BACE1 [2]; Table IV, class symbols", "value": "0.1 to 1", "unit": "µM"}]}
{"compound": "NC1=NC2(CO1)c1cc(-c3cccnc3)ccc1Oc1ccc(-c3cccnc3)cc12", "note": "[Example 123, 2′,7′-di(pyridin-3-yl)-5H-spiro[oxazole-4,9′-xanthen]-2-amine]", "values": [{"measurement": "IC50", "setting": "BACE1 [1]; Table III, IC50's in uM ranges", "value": "< 0.1", "unit": "µM"}, {"measurement": "IC50", "setting": "BACE1 [2]; Table III, IC50's in uM ranges", "value": "< 0.1", "unit": "µM"}]}
{"compound": "NC1=NC2(CO1)c1cnc(Cl)cc1Oc1ccc(-c3cccnc3)cc12", "note": "(stereo not shown) [compound 727]", "values": [{"measurement": "IC50", "setting": "BACE1 [1]", "value": "1 to 5", "unit": "µM"}, {"measurement": "IC50", "setting": "BACE1 [2]", "value": "> 5", "unit": "µM"}]}
{"compound": "CC1(C)Cc2cc(-c3ccc4c(c3)[C@]3(COC(N)=N3)c3cc(-c5cncnc5)ccc3O4)ccc2O1", "note": "[compound 841]", "values": [{"measurement": "IC50", "setting": "BACE1 [1]; Table IV, class symbols", "value": "< 0.1", "unit": "µM"}, {"measurement": "IC50", "setting": "BACE1 [2]; Table IV, class symbols", "value": "0.1 to 1", "unit": "µM"}]}
{"compound": "COCC(=O)Nc1ccc2c(c1)[C@@]1(COC(N)=N1)c1cc(OCC(C)(C)C)ccc1O2", "note": "[compound 375]", "values": [{"measurement": "IC50", "setting": "BACE1 [1]; [3]", "value": "< 0.1", "unit": "µM"}, {"measurement": "IC50", "setting": "BACE1 [2]; [4]", "value": "0.1 to 1", "unit": "µM"}]}
{"compound": "NC1=N[C@]2(CO1)c1cc(C3=CCOCC3)ccc1Oc1cc(F)c(O)cc12", "note": "[compound 491]", "values": [{"measurement": "IC50", "setting": "BACE1 [1]", "value": "0.1 to 1", "unit": "µM"}, {"measurement": "IC50", "setting": "BACE1 [2]; HEK cells", "value": "1 to 5", "unit": "µM"}]}
{"compound": "CC(C)(C#N)COc1cnc2c(c1)[C@]1(COC(N)=N1)c1cc(-c3cc(F)ccc3F)ccc1O2", "note": "[compound 407]", "values": [{"measurement": "IC50", "setting": "BACE1 [1]; [3]", "value": "< 0.1", "unit": "µM"}, {"measurement": "IC50", "setting": "BACE1 [2]; [4]", "value": "< 0.1", "unit": "µM"}]}
{"compound": "CC1(C)CC(c2cc3c(cn2)Oc2ccc(-c4cccnc4)cc2[C@@]32COC(N)=N2)=CCO1", "note": "[compound 436]", "values": [{"measurement": "IC50", "setting": "BACE1 [1]", "value": "< 0.1", "unit": "µM"}, {"measurement": "IC50", "setting": "BACE1 [2]; HEK cells", "value": "< 0.1", "unit": "µM"}]}
